{
  "source": "patent US20040254629A1",
  "about": "“Methods and apparatus for treatment of aneurysmal tissue” (priority 2003, published 2004)",
  "key": {"[1]": {"test_system": "IL-1α expression in stimulated human-derived white blood cells", "test": "Combination therapeutic assay, IL-1α content", "format": "cell-based", "settings": "DOX at 5.69 ug/ml, DEX at 1 ug/ml, alone or combined; 24 hours at 37° C.", "description": "To assay for cytokine concentration, the solution in each test well was transferred to microcentrifuge tubes and centrifuged (3000 rpm) for 5 minutes to pellet any cells that were drawn from the wells. The supernatants were then transferred to fresh tubes and stored in a minus 85° C. freezer until used. The cytokine content in the stored supernatants was determined using commercially available cytokine ELISA- (enzyme linked immunosorbent assays) based assays from, for example, R&D Systems, Minneapolis, Minn., using the manufacturer's instructions. Essentially, the procedure was as follows: first, 200 μl of the test samples were added to each well of the microplates. The wells of the microplates were precoated with monoclonal antibodies specific to the cytokine being analyzed. All lipopolysaccharide-(LPS) treated samples were diluted 1:10 in RPMI growth media prior to the assay. The plates were covered and incubated for 2 hours at room temperature. Each well was then washed three times with wash buffer (350 μl/well), and 200 μl of cytokine conjugate were added to each well, covered, and incubated for 1 hour at room temperature. Next, 200 μl of substrate solution were added to each well and incubated for 20 minutes at room temperature. […] The optical density readings of the color development were determined in a microplate reader set at 450 nm wavelength. […]"}, "[2]": {"test_system": "MMP-9 expression in stimulated human-derived white blood cells", "test": "Combination therapeutic assay, MMP-9 content", "format": "cell-based", "settings": "DOX at 5.69 ug/ml, DEX at 1 ug/ml, alone or combined; 24 hours at 37° C.", "description": "Next, to test the effect of therapeutics in combination, assays were performed to determine the effect of doxycycline alone (DOX at 5.69 ug/ml); dexamethasone alone (DEX at 1 ug/ml) and the effect of a combination of doxycycline and dexamethasone (DOX at 5.69 ug/ml)+DEX at 1 ug/ml). Dexamethasone is a potent agent with broad anti-inflammatory (against cytokines, chemokines, prostaglandins, etc.) and immunosuppressive properties. Dexamethasone also has known anti-angiogenic properties. Doxycycline was used as the MMP inhibitor for these studies.\nBriefly, human-derived white blood cells were placed in a 24 well plate and exposed to a stimulant (PHA or lipopolysaccharide (LPS)) and the three different treatment regimes for a period of 24 hours at 37° C. The supernatants were then collected and assayed for MMP-9 and IL-1 content."}, "[3]": {"test": "Stability assay of doxycycline and dexamethasone in combination", "format": "physicochemical", "settings": "DOX (56.9 ug/ml)+DEX (10 ug/ml) mixture, 4 days at 37° C.", "description": "A stability assay was first performed to ascertain whether doxycycline and dexamethasone react with one another. High concentrations of each solution were combined (DOX (56.9 ug/ml)+DEX (10 ug/ml)) and allowed to incubate for 4 days at 37° C. in an orbital shaker. At the end of four days the concentrations of each drug in the mixture was determined by spectrophotometry and compared to the original concentrations."}, "[4]": {"test_system": "MMP-9 secretion from PHA-stimulated human white blood cells", "test": "MMP assay: effect of doxycycline on MMP-9 secretion from PHA-stimulated human white blood cells", "format": "cell-based", "settings": "PHA 10 μg/ml", "description": "To perform an MMP assay to assess the effect of doxycycline on human-derived white blood cells, cells were seeded into 24 well tissue culture plates. The drug concentrations selected for the experiment were based on measured tissue levels of doxycycline following an oral dose of 100 mg. The cells were exposed to the drugs under two schemes. In scheme 1, the cells, the stimulant and the drug were all added at the same time and allowed to incubate for a period of 24 hours. In scheme 2 the cells were preconditioned with the drug for a period of 24 hours and then stimulated with PHA for an additional 24 hours. In this case the total experimental time duration was 48 hours. The seeding densities: 5×10^6 cells per well and assay conditions were as follows: PHA at a working concentration of 10 μg/ml; doxycycline concentrations at 0, 2.5, 5, 10, 12, or 15 μM and either a 24 hour (scheme 1) or 48 hour (scheme 2) duration. MMP-9 analysis was performed using a Quantikine Human MMP-9 (total) Immunoassay (R&D Systems, #DMP900)."}, "[5]": {"settings": "cited from earlier work; for elimination / clearance route: in vivo"}, "ACE": {"target": "ACE (Homo sapiens, UniProt P12821)", "sequence (P12821 30-1306, species assumed)": "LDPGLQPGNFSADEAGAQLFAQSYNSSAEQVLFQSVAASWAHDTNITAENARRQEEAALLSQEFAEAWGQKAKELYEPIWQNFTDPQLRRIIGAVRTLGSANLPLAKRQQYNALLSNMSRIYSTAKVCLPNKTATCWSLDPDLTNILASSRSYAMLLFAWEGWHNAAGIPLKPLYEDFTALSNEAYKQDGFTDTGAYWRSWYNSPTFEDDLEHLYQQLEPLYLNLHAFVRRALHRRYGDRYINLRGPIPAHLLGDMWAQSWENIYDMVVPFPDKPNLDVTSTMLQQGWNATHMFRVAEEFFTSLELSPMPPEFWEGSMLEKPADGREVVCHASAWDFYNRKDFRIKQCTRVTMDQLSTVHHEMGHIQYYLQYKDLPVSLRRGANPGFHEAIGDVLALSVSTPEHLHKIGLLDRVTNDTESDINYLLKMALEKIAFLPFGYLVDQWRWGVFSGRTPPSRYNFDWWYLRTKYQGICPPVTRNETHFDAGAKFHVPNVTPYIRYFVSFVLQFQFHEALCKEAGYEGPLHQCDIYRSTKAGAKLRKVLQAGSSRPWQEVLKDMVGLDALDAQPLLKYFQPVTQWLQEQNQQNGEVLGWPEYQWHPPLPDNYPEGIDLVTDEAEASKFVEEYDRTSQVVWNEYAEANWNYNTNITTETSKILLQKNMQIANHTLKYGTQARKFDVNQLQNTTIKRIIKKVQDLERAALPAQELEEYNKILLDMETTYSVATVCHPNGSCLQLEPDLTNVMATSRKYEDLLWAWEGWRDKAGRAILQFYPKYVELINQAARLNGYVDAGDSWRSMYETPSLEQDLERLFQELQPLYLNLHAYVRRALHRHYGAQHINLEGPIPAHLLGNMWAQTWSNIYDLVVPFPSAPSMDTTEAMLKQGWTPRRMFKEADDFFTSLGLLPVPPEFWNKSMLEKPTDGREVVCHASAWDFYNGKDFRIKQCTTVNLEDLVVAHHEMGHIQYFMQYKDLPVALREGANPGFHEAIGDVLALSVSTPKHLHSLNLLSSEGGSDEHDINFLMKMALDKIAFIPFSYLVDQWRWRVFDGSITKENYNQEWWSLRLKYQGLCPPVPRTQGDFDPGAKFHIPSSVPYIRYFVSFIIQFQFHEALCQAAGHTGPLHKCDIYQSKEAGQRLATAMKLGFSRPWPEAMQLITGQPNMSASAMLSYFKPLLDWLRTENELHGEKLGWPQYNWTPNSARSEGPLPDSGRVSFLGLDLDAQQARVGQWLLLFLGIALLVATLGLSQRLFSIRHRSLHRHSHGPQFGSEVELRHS", "settings": "in vitro; cited from earlier work"}, "[6]": {"test_system": "MMP-9 secretion from human-derived white blood cells", "test": "MMP assay development: effect of stimulants on MMP-9 release from human-derived white blood cells", "format": "cell-based", "settings": "PHA 10 μg/ml alone, five million (5M) cells per well, 24 hours at 37° C.", "from_the_text": "MMP assay development involved two separate determinations. The first set of experiments established the working conditions for the assay, namely the optimal cell density and the choice and concentration of stimulant. MMP-9 is secreted by monocytes, macrophages, and neutrophils, amongst other cells; however, under non-stimulatory in vitro conditions the basal level secretion of MMP-9 by these cells is very low. Thus, for the second set of experiments (performed to determine the inhibitory effects of potential drugs or reagents), the levels of MMP secretion were raised to sufficiently high levels so that drug-mediated differences could be detected.\nHuman-derived white blood cells were isolated from human blood by a procedure such as that described above. The total cell population was adjusted and added to 24 well polystyrene tissue culture plates in the following cell densities: 5 million, 2 million, 1 million and 0.5 million per well. The stimulants used to stimulate MMP secretion were PMA (phorbol 12-myristate 13-acetate, Sigma #P8139) at a working concentration of 100 nM; PHA (phythohemagglutinin, Sigma #L9017) at a working concentration of 10 μg/ml; and PMA (100 nM)+PHA (10 μg/ml). […] The secreted MMP was determined by ELISA using a Quantikine Human MMP-9 (total) Immunoassay (R&D Systems, #DMP900)."}},
  "data": [
    {"compound": "C[C@@H]1C[C@H]2[C@@H]3CCC4=CC(=O)C=C[C@]4(C)[C@@]3(F)[C@@H](O)C[C@]2(C)[C@@]1(O)C(=O)CO", "note": "[DEX, dexamethasone]", "values": [
      {"measurement": "inhibition of IL expression compared to the control", "setting": "[1]", "value": "approximately 85%"}
    ]},
    {"compound": "CC1c2cccc(O)c2C(=O)C2=C(O)C3(O)C(=O)C(C(N)=O)=C(O)C(N(C)C)C3C(O)C21.O", "note": "(stereo not shown) [DOX, 4-(Dimethylamino)-1,4,4a,5,5a,6,11, 12a-octahydro-3,5,10,12,12a-pentahydroxy-6-methyl-1,11-dioxo-2-naphthacenecarboxamide monohydrate]", "values": [
      {"measurement": "inhibition of MMP-9 compared to the control", "setting": "[2]", "value": "approximately 32%"},
      {"measurement": "inhibition of IL expression compared to the control", "setting": "[1]", "value": "no effect on inflammatory cytokine expression"},
      {"measurement": "Final Concentration", "setting": "[3]; MES buffer", "value": "˜56.7 ug/ml"},
      {"measurement": "Final Concentration", "setting": "[3]; PBS buffer", "value": "˜57.5/ml ug/ml"},
      {"measurement": "effect on MMP-9 expression over 0-15 μM", "setting": "[4]; doxycycline 0, 2.5, 5, 10, 12, or 15 μM", "value": "dose-dependent inhibitory effect"},
      {"measurement": "inhibition of MMP-9 expression", "setting": "[4]; doxycycline at 15 μM, 5×10^6 cells per well, scheme 1 (24 hour) or scheme 2 (48 hour)", "value": "~60", "unit": "%"}
    ]},
    {"compound": "C[C@H](CS)C(=O)N1CCC[C@H]1C(=O)O", "note": "[captopril]", "values": [
      {"measurement": "bioavailability", "setting": "[5]; given orally", "value": "about 75%"}
    ]},
    {"compound": "CCC(=O)O[C@@H](O[P@](=O)(CCCCc1ccccc1)CC(=O)N1C[C@H](C2CCCCC2)C[C@H]1C(=O)O)C(C)C", "note": "[fosinopril]", "values": [
      {"measurement": "elimination / clearance route", "setting": "[5]", "value": "balanced elimination by the liver and kidneys"}
    ]},
    {"compound": "NCCCC[C@H](N[C@@H](CCc1ccccc1)C(=O)O)C(=O)N1CCC[C@H]1C(=O)O", "note": "[lisinopril]", "values": [
      {"measurement": "time of peak concentrations in the plasma", "setting": "[5]; oral administration", "value": "about 7 hours"},
      {"measurement": "ACE inhibitor potency compared with enalaprilat", "setting": "ACE", "value": "slightly more potent"}
    ]},
    {"compound": "CCOC(=O)[C@H](CCc1ccccc1)N[C@@H](C)C(=O)N1CC2(C[C@H]1C(=O)O)SCCS2", "note": "[spirapril]", "values": [
      {"measurement": "elimination / clearance route", "setting": "[5]", "value": "balanced elimination by the liver and kidneys"}
    ]},
    {"compound": "phythohemagglutinin [PHA]", "values": [
      {"measurement": "increase in MMP-9 secretion over basal levels", "setting": "[6]", "value": "greater than 200 fold"}
    ]}
  ]
}
